Experiment: evaluation of solubility in water (dissolving at 40° C., then deposition on ice bath at 0° C.)
Assay type: physicochemical
Conditions: for Solubility of 0° C.: time to deposition, aqueous solution (20 g/100 mL) on ice bath under stirring; for Solubility at 40° C.: time to dissolve 20 g sample in 100 mL water on warm bath at 40° C., stirred
Method: Compounds I-1, I-2, I-4, I-11, I-12, and I-22 obtained above, and the Comparison Compounds a, b, c and d were subjected to evaluation of solubility in water.
Water (100 mL) was added to 20 g of each sample, and the mixture was placed on a warm bath (at 40° C.), and stirred using a magnetic stirrer, so that the added sample was dissolved in the warm water. Then, the obtained aqueous solution was placed on an ice bath under stirring.

Compound | Solubility of 0° C. | Solubility at 40° C.
O=S(=O)([O-])CCNc1nc(NCC(O)CO)nc(Nc2ccc(C=Cc3ccc(Nc4nc(NCCS(=O)(=O)[O-])nc(NCC(O)CO)n4)cc3S(=O)(=O)[O-])c(S(=O)(=O)[O-])c2)n1.[Na+].[Na+].[Na+].[Na+] (stereo not shown) [Comp. I-1] | No deposition within 180 sec. | dissolved within 120 sec.
O=S(=O)([O-])CCNc1nc(NCCC(O)CO)nc(Nc2ccc(C=Cc3ccc(Nc4nc(NCCC(O)CO)nc(NCCS(=O)(=O)[O-])n4)cc3S(=O)(=O)[O-])c(S(=O)(=O)[O-])c2)n1.[Na+].[Na+].[Na+].[Na+] (stereo not shown) [Comp. I-4] | No deposition within 180 sec. | 
O=S(=O)([O-])CCNc1nc(NCCOCCO)nc(Nc2ccc(C=Cc3ccc(Nc4nc(NCCOCCO)nc(NCCS(=O)(=O)[O-])n4)cc3S(=O)(=O)[O-])c(S(=O)(=O)[O-])c2)n1.[Na+].[Na+].[Na+].[Na+] [Comp. I-11] | No deposition within 180 sec. | dissolved within 120 sec.
O=S(=O)([O-])CCNc1nc(NCCCO)nc(Nc2ccc(C=Cc3ccc(Nc4nc(NCCCO)nc(NCCS(=O)(=O)[O-])n4)cc3S(=O)(=O)[O-])c(S(=O)(=O)[O-])c2)n1.[Na+].[Na+].[Na+].[Na+] [Comp. a, reference compound] |  | some insoluble remained at 300 sec.
CC(C)(CO)CNc1nc(NCCS(=O)(=O)[O-])nc(Nc2ccc(C=Cc3ccc(Nc4nc(NCCS(=O)(=O)[O-])nc(NCC(C)(C)CO)n4)cc3S(=O)(=O)[O-])c(S(=O)(=O)[O-])c2)n1.[Na+].[Na+].[Na+].[Na+] [Comp. b, reference compound] |  | some insoluble remained at 300 sec.

From patent publication US20050230662A1, “Diaminostilbene derivatives” (priority 1999, published 2005)
